The results in this text go back to patent US9828338B2, “Carbamate derivatives of lactam based N-acylethanolamine acid amidase (NAAA) inhibitors” (The Regents of the University of California, priority 2013, dated 2017).

The target in one experiment is T1, r-NAAA (Rattus norvegicus, UniProt Q5KTC7).
T1 construct: Lysosomal NAAA protein preparation was obtained by homogenizing male Sprague-Dawley rat lungs; tissue Charles River (animals); host or cells: male Sprague-Dawley rat lung, soluble lysosomal fraction
T1 sequence (Q5KTC7 34-362): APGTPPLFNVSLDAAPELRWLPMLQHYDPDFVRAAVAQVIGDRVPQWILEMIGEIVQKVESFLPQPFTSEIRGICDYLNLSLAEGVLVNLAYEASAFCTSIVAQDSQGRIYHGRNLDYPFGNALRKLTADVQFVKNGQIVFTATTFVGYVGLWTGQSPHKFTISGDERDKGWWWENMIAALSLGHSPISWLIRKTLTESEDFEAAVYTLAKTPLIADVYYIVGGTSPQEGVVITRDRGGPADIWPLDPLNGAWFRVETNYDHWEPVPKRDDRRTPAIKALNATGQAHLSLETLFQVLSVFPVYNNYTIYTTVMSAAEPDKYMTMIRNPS
Description: UPLC/MS r-NAAA assay. The class given is biochemical.
Conditions: not given
On the procedure: Lysosomal NAAA protein preparation was obtained by homogenizing male Sprague-Dawley rat lungs (Charles River) in 20 mM Tris-HCl buffer pH 7.4 containing 0.32M sucrose. […] Supernatants were then centrifuged at 12,000 xg for 30 min at 4° C. Pellets were then resuspended in PBS pH 7.4 and subjected to a freeze/thaw cycle at −80° C. The suspension was finally centrifuged at 105,000×g for 1 h at 4° C. The supernatant was then used in the enzymatic assay.
NAAA protein preparation was pre-incubated with various concentrations of test compounds or vehicle control in 100 mM NaH2PO4/Citrate buffer, 1% Triton-X, 3 mM DTT (pH 4.5) for 30 min at 37° C. Samples were then incubated with heptadecenoylethanolamide (50 μM, Avanti Polar Lipids) at 37° C. for 30 min. The reaction was terminated by addition of cold methanol containing heptadecanoic acid (NuCheck Prep) as internal standard. Samples were then analyzed by UPLC/MS (Acquity, Waters). […] The column temperature was 40° C. Electrospray ionization was in the negative mode, capillary voltage was 0.5 kV, cone voltage was […], desolvation temperature was 500° C. N2 was used as drying gas at a flow rate of 1000 L/hour and a temperature of 500° C. […] Calibration curves were generated using commercial heptadecenoic acid (NuCheck Prep) Inhibition of NAAA activity was calculated as reduction of heptadecenoic acid in the samples compared to vehicle controls. IC50 values were calculated by non-linear regression analysis of log [concentration]/inhibition curves using GraphPad Prism 5 (GraphPad Software Inc., CA—USA) applying a standard slope curve fitting.
`O=C(N[C@H]1CNC1=O)OCCCCc1ccc(C(F)(F)F)cc1` [Example 38, 4-[4-(Trifluoromethyl)-phenyl]-butyl-N-[(3S)-2-oxoazetidin-3-yl]-carbamate]: it took 670 nM to reach half-maximal inhibition (IC50). This counts as sub-micromolar.

Compound `Cc1cccc(-c2ccc(COC(=O)N[C@H]3CNC3=O)cc2)c1` [Example 43, [4-(m-Tolyl)-phenyl]-methyl-N-[(3S)-2-oxoazetidin-3-yl]-carbamate] yielded a concentration for half-maximal inhibition (IC50) of 870 nM. The IC50 values of the last two compounds are within 1.5-fold of each other.

For `O=C(N[C@H]1CNC1=O)OCCCCC1CCOCC1` [Example 48, 4-Tetrahydropyran-4-yl-butyl-N-[(3S)-2-oxoazetidin-3-yl]-carbamate], half-maximal inhibition (IC50) was put at 12600 nM.

`C[C@H]1NC(=O)[C@@H]1NC(=O)OCCCCC1CCCCC1` [Example 80, 4-Cyclohexylbutyl-N-[(2R,3R)-2-methyl-4-oxo-azetidin-3-yl]-carbamate] yielded an IC50 of 21500 nM.

Compound `O=C(N[C@H]1CNC1=O)OCc1cccc(Cc2ccccc2)c1` [Example 32, (3-Benzylphenyl)-methyl-N-[(3S)-2-oxoazetidin-3-yl]-carbamate] had an IC50 of 1200 nM.

In the case of `C[C@H]1NC(=O)[C@@H]1NC(=O)OCc1ccc(C2CCCCC2)cc1` [Example 82, (4-Cyclohexylphenyl)-methyl-N-[(2R,3R)-2-methyl-4-oxo-azetidin-3-yl]-carbamate], the IC50 came to 5100 nM.

With `Cc1cccc(-c2ccc(COC(=O)N[C@H]3CNC3=O)cc2C)c1` [Example 42, [3-Methyl-4-(m-tolyl)-phenyl]-methyl-N-[(3S)-2-oxoazetidin-3-yl]-carbamate], half-maximal inhibition (IC50) required 620 nM.

`C[C@@H]1NC(=O)[C@H]1NC(=O)OCCCCCc1ccccc1` [Example 75, 5-Phenylpentyl-N-[(2S,3S)-2-methyl-4-oxo-azetidin-3-yl]-carbamate] returned an IC50 of 2800 nM. Against the preceding compound, the IC50 is about 4.5-fold higher.

`CCCCCCOC(=O)N[C@H]1CNC1=O` [Example 23, Hexyl-N-[(3S)-2-oxoazetidin-3-yl]-carbamate] came in with a half-inhibitory concentration (IC50) of 1600 nM. Against the preceding compound, the IC50 is about 1.8-fold lower.

The same experiment, now with this note: @ 30 μM; read-out: r-NAAA UPLC/MS assay % inhib.
As to `C[C@H]1NC(=O)[C@H]1NC(=O)OCCCCCc1ccccc1` [Example 79, 5-Phenylpentyl-N-[(2R,3S)-2-methyl-4-oxo-azetidin-3-yl]-carbamate], the inhibition at 30 µM turned out to be 35%.

The same experiment, now with this note: @100 μM.
With `CC1(C)NC(=O)[C@H]1NC(=O)OCc1ccc(-c2ccccc2)cc1` [Example 87, (4-Phenylphenyl)-methyl-N-[(3S)-2,2-dimethyl-4-oxo-azetidin-3-yl]-carbamate], the “r-NAAA UPLC/MS assay (n.a.)” value is given as “n.a. (n.a. = <10% inhib. @100 μM)”.

`CC1(C)NC(=O)[C@@H]1NC(=O)OCc1ccc(C2CCCCC2)cc1` [Example 91, (4-Cyclohexylphenyl)-methyl-N-[(3R)-2,2-dimethyl-4-oxo-azetidin-3-yl]-carbamate]: the “r-NAAA UPLC/MS assay (n.a.)” value was “n.a. (n.a. = <10% inhib. @100 μM)”.

As for `O=C(N[C@H]1CNC1=O)OCCCCc1ccccn1` [Example 37, 4-(2-Pyridyl)-butyl-N-[(3S)-2-oxoazetidin-3-yl]-carbamate], the “r-NAAA UPLC/MS assay (n.a.)” value is given as “n.a. (n.a. = <10% inhib. @100 μM)”.

The experiment is the same for the next values; noted with them: read-out: r-NAAA UPLC/MS assay % inhib.
Consider `C[C@H]1NC(=O)[C@H]1NC(=O)OCc1ccc(C2CCCCC2)cc1` [Example 78, (4-Cyclohexylphenyl)-methyl-N-[(2R,3S)-2-methyl-4-oxo-azetidin-3-yl]-carbamate], for which the inhibition at 100 µM amounted to 55%.

The next experiment deals with T2, human NAAA (Homo sapiens, UniProt Q02083).
T2 construct: made in house; host or cells: HEK293 cells, stably transfected; soluble lysosomal fraction used as enzyme source
T2 sequence (Q02083 29-359): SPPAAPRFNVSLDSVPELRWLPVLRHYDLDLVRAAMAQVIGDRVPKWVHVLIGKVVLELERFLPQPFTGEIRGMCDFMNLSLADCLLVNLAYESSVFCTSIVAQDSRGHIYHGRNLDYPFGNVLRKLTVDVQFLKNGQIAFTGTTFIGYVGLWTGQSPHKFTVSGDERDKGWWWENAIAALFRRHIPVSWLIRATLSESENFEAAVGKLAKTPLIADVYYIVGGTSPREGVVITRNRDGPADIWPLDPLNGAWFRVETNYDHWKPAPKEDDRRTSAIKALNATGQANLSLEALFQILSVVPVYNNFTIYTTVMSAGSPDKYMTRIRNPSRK
Description: Fluorogenic h-NAAA assay.
Conditions: not given
The format is biochemical. The protocol:
Hek293 cells stably transfected with the human NAAA coding sequence cloned from a human spleen cDNA library were used as enzyme source. Recombinant HEK-hNAAA pellets were resuspended in homogenizing buffer, and sonicated. Samples were centrifuged at 800×g for 15 min at 4° C. and the resultant supernatants were then ultracentrifuged at 12,000×g for 30 min at 4° C. The pellets were resuspended in PBS pH 7.4 on ice and subjected to a freeze/thaw cycle at −80° C. The suspension was finally centrifuged at 105,000×g for 1 h at 4° C. Protein concentration was measured and samples aliquoted and stored at −80° C. until use.
The assay was run in Optiplate 96-wells black plates, in a total reaction volume of 200 μL. NAAA protein preparation (4.0 μg) was pre-incubated for 10 min with various concentrations of test compounds or vehicle control (5% DMSO) in 100 mM citrate/phosphate buffer (pH 4.5) containing 3.0 mM DTT, 0.1% Triton X-100, 0.05% BSA, 150 mM NaCl. N-(4-methyl-2-oxo-chromen-7-yl)-hexadecanamide was used as a substrate (5.0 μM) and the reaction carried over for 30 min at 37° C. The samples were then read in a Perkin Elmer Envision plate reader using an excitation wavelength of 360 nm and emission 460 nm. IC50 values were calculated by non-linear regression analysis of log [concentration]/inhibition curves using GraphPad Prism 5 (GraphPad Software Inc., CA—USA) applying a standard slope curve fitting.
As to `C#CCCCCCCCCCOC(=O)N[C@H]1CNC1=O` [Example 103, Undec-10-ynyl-N-[(3S)-2-oxoazetidin-3-yl]-carbamate], the 50% inhibitory concentration (IC50) came out at 6 nM.

For the compound `O=C(N[C@H]1CNC1=O)OCc1ccc(-c2ccccc2)c(F)c1` [Example 60, (3-Fluoro-4-phenyl-phenyl)-methyl-N-[(3S)-2-oxoazetidin-3-yl]-carbamate], the IC50 amounted to 237 nM.

Compound `C[C@@H]1NC(=O)[C@@H]1NC(=O)OCc1ccc(C2CCCCC2)cc1` [Example 85, (4-Cyclohexylphenyl)-methyl-N-[(2S,3R)-2-methyl-4-oxo-azetidin-3-yl]-carbamate] came in with an IC50 of 619 nM.

The experiment is the same for the next values; noted with them: @ 2.5 μM; read-out: h-NAAA Fluorogenic assay % inhib.
Regarding `O=C(N[C@H]1CNC1=O)OCc1ccc(C(=O)NC2CCCCC2)cc1` [Example 68, [4-(Cyclohexylcarbamoyl)-phenyl]-methyl-N-[(3S)-2-oxoazetidin-3-yl]-carbamate], the inhibition at […] worked out at 18%.

With `O=C(N[C@H]1CNC1=O)OCCCc1ccccc1` [Example 27, 3-Phenylpropyl-N-[(3S)-2-oxoazetidin-3-yl]-carbamate], the inhibition at […] was 45%.

Take `O=C(N[C@H]1CNC1=O)OCc1ccc(C(=O)N2CCCCC2)cc1` [Example 69, [4-(Piperidine-1-carbonyl)-phenyl]-methyl-N-[(3S)-2-oxoazetidin-3-yl]-carbamate]: the inhibition at […] is 12%.

On to `O=C(N[C@H]1CNC1=O)OCc1cnc(-c2ccccc2)nc1` [Example 98, (2-Phenylpyrimidin-5-yl)-methyl-N-[(3S)-2-oxoazetidin-3-yl]-carbamate], for which the inhibition at […] was 26%.

For `O=C(N[C@H]1CNC1=O)OCCCOC1CCCCC1` [Example 50, 3-(Cyclohexoxy)-propyl-N-[(3S)-2-oxoazetidin-3-yl]-carbamate], the inhibition at […] is 25%.

For `O=C(N[C@H]1CNC1=O)OCc1ccc(C(=O)NCc2ccccc2)cc1` [Example 70, [4-(Benzylcarbamoyl)-phenyl]-methyl-N-[(3S)-2-oxoazetidin-3-yl]-carbamate], the inhibition at […] came out at 40%.

Consider `O=C(N[C@H]1CNC1=O)OCc1ccc(OC2CC3CCC2C3)cc1` (mixture of isomers) [Example 102, 4-[(1R,2R,4S)- and (1S,2S,4R)-Norbornan-2-yl]-oxyphenyl]-methyl-N-[(3S)-2-oxoazetidin-3-yl]-carbamate], for which the inhibition at […] is 95%.

Regarding `C[C@@H]1NC(=O)[C@@H]1NC(=O)OCc1ccc(-c2ccccc2)cc1` [Example 84, (4-Phenylphenyl)-methyl-N-[(2S,3R)-2-methyl-4-oxo-azetidin-3-yl]-carbamate], the inhibition at […] stood at 18%.

Consider `O=C(N[C@H]1CNC1=O)OCC1CCC(F)(F)CC1` [Example 99, (4,4-Difluorocyclohexyl)-methyl-N-[(3S)-2-oxoazetidin-3-yl]-carbamate], for which the inhibition at […] came out at 35%.

The same experiment, now with this note: @ 50 μM; read-out: h-NAAA Fluorogenic assay % inhib.
With `O=C(N[C@H]1CNC1=O)OCCc1ccccc1` [Example 28, Phenethyl-N-[(3S)-2-oxoazetidin-3-yl]-carbamate], the inhibition at 50 µM was 65%.

Take `O=C(N[C@H]1CNC1=O)OCCCCc1cccnc1` [Example 47, 4-(3-Pyridyl)-butyl-N-[(3S)-2-oxoazetidin-3-yl]-carbamate]: the inhibition at 50 µM stood at 55%.

As to `O=C(N[C@H]1CNC1=O)OCc1ccc(C(=O)N2CCOCC2)cc1` [Example 53, [4-(Morpholine-4-carbonyl)-phenyl]-methyl-N-[(3S)-2-oxoazetidin-3-yl]-carbamate], the inhibition at 50 µM was found to be 55%.

One may read the IC50 as the concentration needed to halve the response being measured. Lower therefore signals greater potency.
